Experiment: xn = mol fraction of the nth substance listed
Conditions: 101 kPa, Liquid; for speed of sound: Sing-around technique in a fixed-path interferometer; for mass density: Vibrating tube method

CCCCCCn1cc[n+](C)c1.F[P-](F)(F)(F)(F)F [1-hexyl-3-methylimidazolium hexafluorophosphate] + CCCCOC(C)=O
Conditions	mass density [kg/m3]	speed of sound [m/s]
293.15 K, x1 = 0.0956	951.75	1232
293.15 K, x1 = 0.1919	1012.58	1254.6
293.15 K, x1 = 0.273	1056.82	1279.1
293.15 K, x1 = 0.3698	1103.12	1306.9
293.15 K, x1 = 0.4639	1141.87	1329.4
293.15 K, x1 = 0.5701	1179.57	1354.2
293.15 K, x1 = 0.6787	1213.07	1375.9
293.15 K, x1 = 0.7746	1239.19	1395
293.15 K, x1 = 0.8707	1262.73	1412
293.15 K, x1 = 0.9354	1277.66	1425
293.15 K, x1 = 1	1291.38	1436.9
298.15 K, x1 = 0.0956	947.32	1211.1
298.15 K, x1 = 0.1919	1008.36	1234
298.15 K, x1 = 0.273	1052.6	1258.9
298.15 K, x1 = 0.3698	1098.76	1286.7
298.15 K, x1 = 0.4639	1137.51	1309.5
298.15 K, x1 = 0.5701	1175.41	1334.8
298.15 K, x1 = 0.6787	1209.24	1357.2
298.15 K, x1 = 0.7746	1235.56	1377.6
298.15 K, x1 = 0.8707	1259.27	1395.9
298.15 K, x1 = 0.9354	1273.93	1409.2
298.15 K, x1 = 1	1287.34	1423.5
303.15 K, x1 = 0.0956	942.923	1190.1
303.15 K, x1 = 0.1919	1004.08	1212.6
303.15 K, x1 = 0.273	1048.36	1237.4
303.15 K, x1 = 0.3698	1094.3	1265.2
303.15 K, x1 = 0.4639	1133.2	1289.9
303.15 K, x1 = 0.5701	1171.25	1317.5
303.15 K, x1 = 0.6787	1205.24	1342.6
303.15 K, x1 = 0.7746	1231.69	1360.1
303.15 K, x1 = 0.8707	1255.4	1382.6
303.15 K, x1 = 0.9354	1270.13	1397.1
303.15 K, x1 = 1	1283.29	1410.6
308.15 K, x1 = 0.0956	938.4	1170.2
308.15 K, x1 = 0.1919	999.626	1195.2
308.15 K, x1 = 0.273	1043.86	1223.8
308.15 K, x1 = 0.3698	1089.96	1252.4
308.15 K, x1 = 0.4639	1128.94	1282.6
308.15 K, x1 = 0.5701	1167.43	1309.4
308.15 K, x1 = 0.6787	1201.36	1335.2
308.15 K, x1 = 0.7746	1227.89	1354.9
308.15 K, x1 = 0.8707	1251.38	1369.7
308.15 K, x1 = 0.9354	1265.98	1384.4
308.15 K, x1 = 1	1279.4	1398.2
313.15 K, x1 = 0.0956	933.877	1150.1
313.15 K, x1 = 0.1919	995.525	1177
313.15 K, x1 = 0.273	1039.84	1206.8
313.15 K, x1 = 0.3698	1085.95	1236.5
313.15 K, x1 = 0.4639	1124.72	1267.5
313.15 K, x1 = 0.5701	1163.39	1295.4
313.15 K, x1 = 0.6787	1197.76	1321.8
313.15 K, x1 = 0.7746	1224.59	1341.9
313.15 K, x1 = 0.8707	1248.25	1356.9
313.15 K, x1 = 0.9354	1262.68	1372
313.15 K, x1 = 1	1275.48	1386
318.15 K, x1 = 0.0956	929.385	1130.3
318.15 K, x1 = 0.1919	991.164	1158.8
318.15 K, x1 = 0.273	1035.44	1189.8
318.15 K, x1 = 0.3698	1081.67	1220.7
318.15 K, x1 = 0.4639	1120.61	1252.5
318.15 K, x1 = 0.5701	1159.18	1280.7
318.15 K, x1 = 0.6787	1193.95	1308.5
318.15 K, x1 = 0.7746	1221	1329
318.15 K, x1 = 0.8707	1244.79	1344.4
318.15 K, x1 = 0.9354	1258.89	1359.8
318.15 K, x1 = 1	1271.56	1374.2
323.15 K, x1 = 0.0956	924.824	1110.4
323.15 K, x1 = 0.1919	986.823	1140.8
323.15 K, x1 = 0.273	1031.16	1172.9
323.15 K, x1 = 0.3698	1077.6	1205.1
323.15 K, x1 = 0.4639	1116.43	1237.1
323.15 K, x1 = 0.5701	1155.28	1267
323.15 K, x1 = 0.6787	1190.27	1295.7
323.15 K, x1 = 0.7746	1217.39	1316.4
323.15 K, x1 = 0.8707	1241.1	1332.1
323.15 K, x1 = 0.9354	1255.1	1347.8
323.15 K, x1 = 1	1267.63	1362.5
